Read-outs that look alike come from different tables or passages of the source.
Key:
[1] = phase 1 first-in-human trial, single ascending dose (SAD) PK; type: in vivo; details: for fold increase in AUC / fold increase in Cmax: SAD; for Tmax / AUC(0-t) / Cmax / half-life: human, plasma; for Cmax: read-out: Cmax (geometric mean); for half-life: read-out: T1/2 (geometric mean) (converted)
Experimental: Anle138b was studied in a single-centre, double-blind, randomised, placebo-controlled single ascending dose (SAD) and multiple ascending dose (MAD) study in healthy subjects. Eligible participants were randomly assigned (1:1 for sentinel subjects and 1:5 for main group) to placebo or anle138b (dose ranging from 50 mg to 300 mg per day), respectively. In addition, the effect of food on the pharmacokinetics (PK) of anle138b in healthy subjects was examined at doses of 150 mg per day (FES, food effect study). Participants were randomized to treatment sequence (fed→fasted) or (fasted→fed). Treatment for the SAD, MAD and FES arms of the study was administered orally in hard gelatin capsules containing either 10 mg or 30 mg of anle138b with excipient (i.e., lauroyl polyoxyl-32 glycerides) or excipient only. The primary endpoints were safety and tolerability, the secondary endpoint was pharmacokinetics. Data from all randomized individuals were evaluated. [Clinicaltrials.gov-identifier: NCT04208152. EudraCT-number: 2019-004218-33]
Study design: A single-centre, double-blind, randomised, placebo-controlled single ascending dose (SAD) and multiple ascending dose (MAD) study of anle138b in doses of up to 300 mg per day in healthy subjects. The effect of food (FES) on the PK of anle138b in healthy subjects was examined using doses of 150 mg. Participants were recruited from Quotient Sciences (the “CRO”, Nottingham, UK) volunteer database. Approvals from the ethical review board and from the Medicines and Healthcare products Regulatory Agency (UK) were obtained. This study was conducted in accordance with the protocol and with the following legislation: The updated version of the international Council for Harmonisation Good Clinical Practice (GCP) including the integrated Addendum E6, the Medicines for Human Use (Clinical Trials) Regulations including amendments No. 1928, 2984 and 941. In addition, the study was performed according to the ethical principles outlined in the World Medical Association Declaration of Helsinki and its amendments. The study data was monitored. An independent study monitor was appointed to verify that the study was conducted in accordance with current GCP, regulatory requirements, the protocol and that the data were authentic, accurate and complete.
In SAD, subjects received a single dose of anle138b or placebo after fasting from all food and drink (except water) for a minimum of 8 h prior to dosing. The dosing in the four SAD-cohorts were 50 mg, 100 mg, 200 mg and 300 mg of free anle138b equivalent, QD, cohorts A, B, C and D respectively. In the MAD part, participants received anle138b or placebo once daily (QD) for 7 days after fasting from all food and drink (except water) for a minimum of 8 h prior to dosing. The dosing in the three MAD-cohorts was 100 mg, 200 mg and 300 mg of free anle138b equivalent, cohorts AM, BM and CM, respectively. Post dosing mouth and hand checks were conducted to ensure the capsules were swallowed. In-study decisions were made by the safety advisory committee (SAC) comprising the principal investigator, the sponsor's medical monitor and a PK expert. For dose escalation to proceed, data needed to be available from a minimum of 6 subjects per cohort with completed per protocol safety and PK assessments up to 48 h after dosing to ensure at least 4 subjects had received active IMP. The decision to proceed to the next higher dose level was based on safety, tolerability and available PK data to 48 h post-administration. The following data were analyzed: Adverse events, vital signs, safety laboratory, ECG, physical examinations, plasma concentrations of anle138b with interim PK parameter estimations (Tmax, Cmax, AUC0-24, AUC0-tau, AUC0-last and T½, where applicable). Data were provided to the SAC in accordance with CRO standard operating procedure (SOP) on interim dose decision-making and dose escalation. […]

[2] = 28-day toxicity study in rats; type: in vivo
Source text: Safe starting dose & exposure limit justification: This trial followed the recommendations of the EMA (European Medicines Agency) (EMEA/CHMP/SWP/28367/07 Rev. 1; 20 Jul. 2017) and the FDA (Food and Drug Administration) (Guidance for Industry: Estimating the Maximum Safe Starting Dose in Initial Clinical Trials for Therapeutics in Adult Healthy Volunteers. U.S. Department of Health and Human Services Food and Drug Administration Center for Drug Evaluation and Research (CDER) July 2005) for dose finding in a first-in-human study. The safe starting dose was set based on toxicity studies in animals. In a 28-day toxicity study in rats, the no-observed-adverse-effect-level (NOAEL) was determined to be 50 mg/kg/day (human equivalent dose of 8.1 mg/kg). The dose range of the current trial was designed to start at 50 mg. Escalation between doses was planned to be flexible depending on emerging results but not to exceed an increment of 2-fold.

[3] = 1.5-fold increase in dose from 200 mg to 300 mg
[4] = 2-fold increase in dose from 50 mg to 100 mg
[5] = 2-fold increase in dose from 100 mg to 200 mg
[6] = po, 50 mg, healthy volunteers, fasted, single oral 50 mg
[7] = po, 100 mg, healthy volunteers, fasted, single oral 100 mg
[8] = po, 200 mg, healthy volunteers, fasted, single oral 200 mg
[9] = po, 300 mg, healthy volunteers, fasted, single oral 300 mg

In the case of `Brc1cccc(-c2cc(-c3ccc4c(c3)OCO4)n[nH]2)c1` [anle138b, 3-(1,3-benzodioxol-5-yl)-5-(3-bromophenyl)-1H-pyrazole], the “fold increase in AUC” value [1, 3] is reported as about 1.5 fold, the “fold increase in Cmax” value [1, 3] is reported as about 1.5 fold and the “fold increase in AUC” value [1, 4] is reported as about 3.3 fold. The “fold increase in Cmax” value [1, 4] was about 2.9 fold, the “fold increase in AUC” value [1, 5] was about 3.0 fold and the “fold increase in Cmax” value [1, 5] was about 2.9 fold. The “practical terminal elimination half-time” value ([1]; healthy volunteers, overall) was about 12 h, the Tmax ([1]; oral, healthy volunteers, single dose 50-300 mg, post-administration, read-out: median Tmax, all SAD cohorts) was 1 to 1.5 h and the Tmax ([1]; po, 50 mg, healthy volunteers, fasted, single oral 50 mg (Cohort A), read-out: Tmax (median)) was 1 h. For the same compound, the Tmax ([1]; po, 50 mg, healthy volunteers, fasted, single oral 50 mg (Cohort A), read-out: Tmax (range)) was 0.5 to 2 h, the AUC(0-t) ([1]; po, 50 mg, healthy volunteers, fasted, single oral 50 mg, read-out: AUC(0-24) (geometric mean)) was about 113 ng·h/mL and the AUC(0-t) ([1]; po, 50 mg, healthy volunteers, fasted, single oral 50 mg, read-out: AUC(0-last) (geometric mean)) was 109 ng·h/mL. It also gave a Cmax [1, 6] of about 54.3 ng/mL, a half-life [1, 6] of 3.9 h and a Tmax ([1]; po, 100 mg, healthy volunteers, fasted, single oral 100 mg (Cohort B), read-out: Tmax (median)) of 1.5 h. The Tmax ([1]; po, 100 mg, healthy volunteers, fasted, single oral 100 mg (Cohort B), read-out: Tmax (range)) was 0.5 to 2 h, the AUC(0-t) ([1]; po, 100 mg, healthy volunteers, fasted, single oral 100 mg, read-out: AUC(0-24) (geometric mean)) was over 300 ng·h/mL and the AUC(0-t) ([1]; po, 100 mg, healthy volunteers, fasted, single oral 100 mg, read-out: AUC(0-last) (geometric mean)) was 372 ng·h/mL. The Cmax [1, 7] was about 156 ng/mL, the half-life [1, 7] was 10.8 h and the Tmax ([1]; po, 200 mg, healthy volunteers, fasted, single oral 200 mg (Cohort C), read-out: Tmax (median)) was 1.5 h. It also gave a Tmax ([1]; po, 200 mg, healthy volunteers, fasted, single oral 200 mg (Cohort C), read-out: Tmax (range)) of 1 to 2 h, an AUC(0-t) ([1]; po, 200 mg, healthy volunteers, fasted, single oral 200 mg, read-out: AUC(0-24) (geometric mean)) of about 1090 ng·h/mL and an AUC(0-t) ([1]; po, 200 mg, healthy volunteers, fasted, single oral 200 mg, read-out: AUC(0-last) (geometric mean)) of 1130 ng·h/mL. It also gave a Cmax [1, 8] of about 458 ng/mL, a half-life [1, 8] of 12.8 h and a Tmax ([1]; po, 300 mg, healthy volunteers, fasted, single oral 300 mg (Cohort D), read-out: Tmax (median)) of 1.5 h. It also gave a Tmax ([1]; po, 300 mg, healthy volunteers, fasted, single oral 300 mg (Cohort D), read-out: Tmax (range)) of 1.5 to 2 h, an AUC(0-t) ([1]; po, 300 mg, healthy volunteers, fasted, single oral 300 mg, read-out: AUC(0-24) (geometric mean)) of about 1650 ng·h/mL and an AUC(0-t) ([1]; po, 300 mg, healthy volunteers, fasted, single oral 300 mg, read-out: AUC(0-last) (geometric mean)) of 1720 ng·h/mL. The Cmax [1, 9] was about 704 ng/mL, the half-life [1, 9] was 16.2 h and the “no-observed-adverse-effect-level (NOAEL)” value ([2]; 28-day toxicity study in rats) was 50 mg/kg/day. It also gave an NOAEL at 28 days ([2]; rat, in vivo) of 8.1 mg/kg.
